Experimental data reported in patent US4994376A, “Detection of bacteroides gingivalis” (priority 1987, dated 1991).
Like-named read-outs stand apart in the source and are kept apart here.

Legend:
Format in all cases: biochemical
Streptococcus mitis = conditions: β-naphthylamine liberated after 60 minutes, 37° C.
How it was run: (§1)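 Aminopeptidase values express the nanomoles of β-naphthylamine freed from N-CBz-glycyl-glycyl-L-arginine-β-naphthylamide during a 60-minute, 37° C incubation. The liberated amine was coupled with stabilized diazonium salt Fast Garnet GBC and measured at 525 nm against an enzyme-free blank.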

A. seminis = conditions: strain ATCC 15768; β-naphthylamine liberated after 60 minutes, 37° C.
How it was run: as §1

Fusobacterium nucleatum = conditions: β-naphthylamine liberated after 60 minutes, 37° C.
How it was run: as §1

Eikenella corrodens = conditions: strain BP1-6; β-naphthylamine liberated after 60 minutes, 37° C.
How it was run: as §1

S. sanguis = conditions: β-naphthylamine liberated after 60 minutes, 37° C.
How it was run: as §1

Campylobacter sputorum = conditions: strain Ba1-21; β-naphthylamine liberated after 60 minutes, 37° C.
How it was run: as §1

[1] = test system: Actinobacillus actinomycetemcomitans; conditions: β-naphthylamine liberated after 60 minutes, 37° C.
How it was run: as §1

"Anaerobic vibrio" = conditions: strain SN2T2; β-naphthylamine liberated after 60 minutes, 37° C.
How it was run: as §1

V. parvula = conditions: strain ATCC 10790; β-naphthylamine liberated after 60 minutes, 37° C.
How it was run: as §1

S. mutans = conditions: strain ATCC 25175; β-naphthylamine liberated after 60 minutes, 37° C.
How it was run: as §1

A. viscosus = conditions: β-naphthylamine liberated after 60 minutes, 37° C.
How it was run: as §1

Veillonella sp. = conditions: strain SE1M2; β-naphthylamine liberated after 60 minutes, 37° C.
How it was run: as §1

Actinomyces israeli = conditions: β-naphthylamine liberated after 60 minutes, 37° C.
How it was run: as §1

B. denticola = test: Aminopeptidase activity on β-naphthylamide substrates; conditions: strain ATCC 33185; β-naphthylamine liberated after 60 minutes, 37° C.
How it was run: (§2)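 N-CBz-glycyl-glycyl-L-arginine-β-naphthylamide was hydrolysed for 1 hour at 37 °C, then coupled with Fast Garnet GBC (0.5 mg/ml) in 1M acetic acid buffer, pH 4.2, containing 10% Tween 20. After 15 minutes at room temperature, absorbance was read at 525 nm against a no-enzyme blank; activity is given as nmol β-naphthylamine released per 60 min.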

B. intermedius = test: as above; conditions: strain ATCC 25611; β-naphthylamine liberated after 60 minutes, 37° C.
How it was run: as §2

B. corporis = test: as above; conditions: strain ATCC 33547; β-naphthylamine liberated after 60 minutes, 37° C.
How it was run: as §2

B. melaninogenicus = test: as above; conditions: strain ATCC 25845; β-naphthylamine liberated after 60 minutes, 37° C.
How it was run: as §2

C. sputigena = test: as above; conditions: strain ATCC 33123; β-naphthylamine liberated after 60 minutes, 37° C.
How it was run: as §2

Bacteroides gingivalis = conditions: β-naphthylamine liberated after 60 minutes, 37° C.
How it was run: as §2

B. levii = conditions: β-naphthylamine liberated after 60 minutes, 37° C.
How it was run: as §2

C. ochracea = conditions: strain ATCC 27872; β-naphthylamine liberated after 60 minutes, 37° C.
How it was run: as §2

Capnocytophaga sp. = conditions: strain JD3-5; β-naphthylamine liberated after 60 minutes, 37° C.
How it was run: as §2

F. periodonticum = test: Aminopeptidase activity on β-naphthylamide substrates; conditions: strain EK1-15; β-naphthylamine liberated after 60 minutes, 37° C.
How it was run: as §1

Haemophilus aphrophilus = test: as above; conditions: β-naphthylamine liberated after 60 minutes, 37° C.
How it was run: as §1

A. equuli = test: as above; conditions: strain ATCC 19392; β-naphthylamine liberated after 60 minutes, 37° C.
How it was run: as §1

A. suis = test: as above; conditions: strain ATCC 15557; β-naphthylamine liberated after 60 minutes, 37° C.
How it was run: as §1

Lactobacillus casei = test: as above; conditions: β-naphthylamine liberated after 60 minutes, 37° C.
How it was run: as §1

L. fermentum = test: as above; conditions: strain ATCC 11581; β-naphthylamine liberated after 60 minutes, 37° C.
How it was run: as §1

S. salivarius = test: as above; conditions: β-naphthylamine liberated after 60 minutes, 37° C.
How it was run: as §1

With `CSCCC(N)C(=O)Nc1ccc2ccccc2c1` (racemic) the Aminopeptidase activity (Streptococcus mitis; strain ATCC 9815) was 52 nmol, the Aminopeptidase activity (Streptococcus mitis; strain ATCC 15909) was 12 nmol and the Aminopeptidase activity (Streptococcus mitis; strain ATCC 15911) was 13 nmol. The Aminopeptidase activity (Streptococcus mitis; strain ATCC 15912) was 17 nmol, the Aminopeptidase activity (A. seminis) was 0 nmol and the Aminopeptidase activity (Fusobacterium nucleatum; strain 2) was 1 nmol. It also gave an Aminopeptidase activity (Fusobacterium nucleatum; strain ATCC 25586) of 0 nmol, an Aminopeptidase activity (Fusobacterium nucleatum; strain D31A-24) of 0 nmol and an Aminopeptidase activity (Eikenella corrodens) of 3 nmol. For the same compound, the Aminopeptidase activity (S. sanguis; strain ATCC 10556) was 23 nmol, the Aminopeptidase activity (S. sanguis; strain ATCC 10557) was 18 nmol and the Aminopeptidase activity (Campylobacter sputorum) was 0 nmol. The Aminopeptidase activity ([1]; strain 67) was 0 nmol, the Aminopeptidase activity ([1]; strain 75) was 0 nmol and the Aminopeptidase activity ([1]; strain ATCC 29523) was 1 nmol. It also gave an Aminopeptidase activity ([1]; strain NCTC 9709) of 0 nmol, an Aminopeptidase activity ([1]; strain Y4) of 0 nmol and an Aminopeptidase activity ("Anaerobic vibrio") of 0 nmol. For the same compound, the Aminopeptidase activity (V. parvula) was 0 nmol, the Aminopeptidase activity (S. mutans) was 5 nmol and the Aminopeptidase activity (A. viscosus; strain ATCC 19246) was 9 nmol. For the same compound, the Aminopeptidase activity (A. viscosus; strain T14V) was 7 nmol, the Aminopeptidase activity (Veillonella sp.) was 0 nmol and the Aminopeptidase activity (Actinomyces israeli; strain ATCC 12103) was 12 nmol. The Aminopeptidase activity (Actinomyces israeli; strain DK2-3) was 33 nmol, the Aminopeptidase activity (B. denticola) was 0 nmol and the Aminopeptidase activity (B. intermedius) was 0 nmol. The Aminopeptidase activity (B. corporis) was 0 nmol, the Aminopeptidase activity (B. melaninogenicus) was 1 nmol and the Aminopeptidase activity (C. sputigena) was 117 nmol. For the same compound, the Aminopeptidase activity (Bacteroides gingivalis; strain 9-14K-1) was 0 nmol, the Aminopeptidase activity (Bacteroides gingivalis; strain 11-1-2) was 0 nmol and the Aminopeptidase activity (Bacteroides gingivalis; strain 381) was 0 nmol. It also gave an Aminopeptidase activity (Bacteroides gingivalis; strain 1021) of 0 nmol, an Aminopeptidase activity (Bacteroides gingivalis; strain ATCC 33277) of 0 nmol and an Aminopeptidase activity (Bacteroides gingivalis; strain FAYE 19m-1) of 0 nmol. For the same compound, the Aminopeptidase activity (B. levii; strain 18-1-5) was 0 nmol, the Aminopeptidase activity (B. levii; strain 18-1-8) was 1 nmol and the Aminopeptidase activity (C. ochracea) was 118 nmol. For the same compound, the Aminopeptidase activity (Capnocytophaga sp.) was 28 nmol, the Aminopeptidase activity (F. periodonticum) was 0 nmol and the Aminopeptidase activity (Haemophilus aphrophilus; strain ATCC 13252) was 0 nmol. The Aminopeptidase activity (Haemophilus aphrophilus; strain ATCC 19415) was 0 nmol, the Aminopeptidase activity (Haemophilus aphrophilus; strain NCTC 5908) was 0 nmol and the Aminopeptidase activity (A. equuli) was 0 nmol. The Aminopeptidase activity (A. suis) was 0 nmol, the Aminopeptidase activity (Lactobacillus casei; strain ATCC 7469) was 1 nmol and the Aminopeptidase activity (Lactobacillus casei; strain ATCC 11578) was 9 nmol. For the same compound, the Aminopeptidase activity (Lactobacillus casei; strain ATCC 11582) was 9 nmol, the Aminopeptidase activity (L. fermentum) was 6 nmol and the Aminopeptidase activity (S. salivarius; strain ATCC 9759) was 5 nmol. The Aminopeptidase activity (S. salivarius; strain ATCC 25975) was 1 nmol.
